According to patent US12377035B2, “Peptides for inhibiting cholinergic calcitonin gene-related peptide (CGRP) and acetylcholine (ACH) release or inhibiting sensitization-mediated by TRPV1-mediated excitability in sensory neurons and methods of use thereof” (AZIENDE CHIMICHE RIUNITE ANGELINI FRANCESCO—A.C.R.A.F. …, priority 2018, dated 2025):
Residues, ends and D or L forms follow the SMILES beside them. *: point of attachment. Palmitoyl = CCCCCCCCCCCCCCCC(=O)*

Key:
Type in all cases: cell-based
[1] = system: acetylcholine release, human neuroblastoma cell line differentiated to cholinergic neuronal phenotype; assay: Inhibition of KCl-induced acetylcholine release in a neuroblastoma cell line (Amplex Red); settings: for % Ach release inhibition: 50 mM KCl
Description: To determine the compound of the invention effects on acetylcholine release, a human neuroblastoma cell line (50.000 cells/well) was used. Cells were differentiated to cholinergic neuronal phenotype for 4 days. Then, cells were pre-incubated for 60 minutes with the compounds (between 0.1 and 100 μM) as acetyl- or palmitoyl-form and conjugated with trifluoroacetate (TFA) or acetate salt. Afterwards, acetylcholine release was induced by membrane depolarization evoked by 15 minutes incubation with 50 mM KCl. Acetylcholine level in supernatants was quantified by using Amplex® Red Acetylcholine Assay Kit (Thermofisher) following manufacturer's instructions. […] Fluorescence (Ex 530 nm/Em 590 nm) was measured in FluorStar equipment. Acetylcholine content was normalized to the total protein content using BCA assay (Pierce) following manufacturer's instructions. Fluorescence measurements were normalized to the maximum signal detected with KCl stimulation in vehicle treated cells. Vesicle exocytosis disruption by the compounds of the invention lead to a decrease of acetylcholine release (Table E).

[2] = system: human dermal fibroblasts (HDFa); assay: MTT cell viability assay on dermal fibroblasts; settings: for % inhibition cell viability: HDFa, 24 hours; for effect on cell viability (in words): dermal fibroblast, up to 200 μM
Description: (§1) This example evaluated effects of the peptides of invention on human epidermal keratinocytes and dermal fibroblasts. Cell viability was determined with the 3-(4,5-dimethyl-2-thiazolyl)-2,5-diphenyl-2H-tetrazolium bromide (MTT) assay. The MTT assay is a colorimetric reaction based on the capacity of the mitochondrial dehydrogenase enzyme to break and transform the tetrazolium rings of MTT. Epidermal keratinocytes (HEKa) were seeded in a previously coated 96 well-plate at 50-60% confluence in 100 μL of supplemented corresponding medium. Dermal fibroblasts (HDFa) were seeded in a 96 well-plate at 70% confluence in 100 μL supplemented medium. For both cell lines, 24 hours after seeding, medium was replaced by fresh supplemented medium containing peptides dissolved at concentration range between 0.1 and 200 μM. All test substances were incubated for 24 hours at 37° C. and 5% CO2. Afterwards, medium was replaced by 0.5 mg/ml of MTT solution for 4 hours in complete medium. Then, medium was carefully removed and 150 μL/well of DMSO were added to solubilize formazan crystals. Plate was protected from light, shaken for 60 seconds and optical density was measured at 570 nm with a reference filter of 620 nm. Table F details effects of peptides of invention on keratinocytes and fibroblasts cell viability expressed as percentage of inhibition.

[3] = system: human epidermal keratinocytes (HEKa); assay: MTT cell viability assay on epidermal keratinocytes; settings: for % inhibition cell viability: HEKa, 24 hours; for effect on cell viability (in words): human epidermal keratinocytes, up to 200 μM
Description: as §1

[4] = system: CGRP induced-release on peptidergic sensory neurons (dorsal root ganglia); assay: Inhibition of capsaicin-induced CGRP release on cultured sensory neurons (CGRP EIA); settings: 1 hour, 1 μM capsaicin 10 min
Description: The induction of the release of calcitonin-gene related peptide (CGRP) with capsaicin enables direct measurement of neuronal exocytosis (Meng J. et al., J. Cell. Sci. (2007) 15; 120(Pt 16):2864-74, and Meng J. et al., Mol. Neurobiol. (2014); 50(2):574-88).
The tested peptides were evaluated by measuring their capability of inhibiting CGRP induced-release on peptidergic sensory neurons. Dorsal root ganglia were seeded (50.000 cells/well) in a 96-well plate previously coated with poly-L-lysine and laminin. After 48 hours seeding, cells were incubated with Hank's Balanced salt solution containing peptides of invention at 20, 50 or 100 μM for 1 hour. Next, cells were stimulated for 10 min with 1 μM capsaicin at 37° C. Then, CGRP content was determined in supernatants using colorimetric based CGRP EIA (Spi-Bio Inc) following manufacturer's instructions. Absorbance measurements (405 nm) were standardized with regard to the maximum signal detected with capsaicin stimulation in vehicle treated cells. Inhibition values of CGRP release were calculated as percentages by considering maximum signal to capsaicin-induced release and minimum as non-stimulated cells. Table D details inhibition values of […] obtained for the peptides of invention.

Row | Molecule | % Ach release inhibition ([1]; TFA salt, 5 μM) | % Ach release inhibition ([1]; TFA salt, 10 μM) | % Ach release inhibition ([1]; TFA salt, 50 μM) | % inhibition cell viability ([2]; 0.1 μM) | % inhibition cell viability ([2]; 0.5 μM) | % inhibition cell viability ([2]; 1 μM) | % inhibition cell viability ([2]; 5 μM) | % inhibition cell viability ([2]; 10 μM) | % inhibition cell viability ([2]; 50 μM) | % inhibition cell viability ([3]; 0.1 μM) | % inhibition cell viability ([3]; 0.5 μM) | % inhibition cell viability ([3]; 1 μM) | % inhibition cell viability ([3]; 5 μM) | % inhibition cell viability ([3]; 10 μM) | % inhibition cell viability ([3]; 50 μM) | % CGRP release inhibition ([4]; peptide 20 μM) | % CGRP release inhibition ([4]; peptide 50 μM) | % Ach release inhibition ([1]; Acetate salt, 0.1 μM) | % Ach release inhibition ([1]; Acetate salt, 1 μM) | % Ach release inhibition ([1]; Acetate salt, 10 μM) | other results
1 | CCCCCCCCCCCCCCCC(=O)N[C@@H](CCSC)C(=O)N[C@@H](CCC(N)=O)C(=O)N[C@H](C(=O)N[C@@H](Cc1c[nH]c2ccccc12)C(=O)N[C@@H](CC(C)C)C(=O)N[C@@H](CCCNC(=N)N)C(=O)N[C@@H](CCSC)C(=O)N[C@@H](Cc1c[nH]c2ccccc12)C(=O)N[C@H](C(=O)N[C@@H](CC(=O)O)C(=O)N[C@@H](Cc1ccc(O)cc1)C(=O)N[C@@H](CCCNC(=N)N)C(=O)N[C@@H](C)C(=O)N[C@H](C(N)=O)[C@@H](C)O)[C@@H](C)CC)C(C)C [SEQ ID NO: 2 palmitoyl, MQVWLRMWIDYRAT] (Palmitoyl-MQVWLRMWIDYRAT-NH2) | −46.1% | −35.1% | 20.6% | 30.8% | 42.9% | 45.8% | 47.3% | 47.1% | 35.3% | 12.1% | 20.9% | 25.6% | 36.9% | 36.5% | 32.5% | 35.5% | 53.9% |  |  |  | 
2 | CCCCCCCCCCCCCCCC(=O)N[C@@H](CCCNC(=N)N)C(=O)N[C@@H](CCCNC(=N)N)C(=O)N[C@H](C(=O)N[C@H](C(=O)N[C@@H](CC(C)C)C(=O)N[C@H](C(=O)N[C@@H](CC(N)=O)C(=O)N[C@@H](CC(N)=O)C(=O)N[C@H](C(=O)N[C@@H](CC(C)C)C(N)=O)[C@@H](C)CC)C(C)C)C(C)C)C(C)C [SEQ ID NO: 3 palmitoyl, RRVVLVNNIL] (Palmitoyl-RRVVLVNNIL-NH2) | 75.4% | 81.8% | 82.8% | 6.0% | 15.5% | 8.7% | 25.7% | 27.2% | 24.3% | −3.8% | −0.9% | 11.7% | 9.9% | 22.4% | 24.8% | 34.0% | 74.8% | 57.0% | 92.5% | 86.7% | activity on ACh release (in words) ([1]; lowest concentration tested 0.1 μM): active; effect on fibroblast viability (in words) ([2]; at 1 µM or below): did not modify keratinocyte and fibroblast viability; effect on keratinocyte viability (in words) ([3]; at 1 µM or below): did not modify keratinocyte and fibroblast viability
3 | CCCCCCCCCCCCCCCC(=O)N[C@@H](CC(C)C)C(=O)N[C@@H](CCCNC(=N)N)C(=O)N[C@H](C(=O)N[C@@H](CCC(N)=O)C(=O)N[C@@H](CCSC)C(=O)N[C@H](C(=O)N[C@@H](CC(N)=O)C(=O)N[C@@H](CCSC)C(=O)N[C@@H](Cc1ccccc1)C(=O)N[C@@H](CC(C)C)C(N)=O)C(C)C)C(C)C [SEQ ID NO: 4 palmitoyl, LRVQMVNMFL] (Palmitoyl-LRVQMVNMFL-NH2) | 26.4% |  | 83.0% | 15.2% | 26.9% | 34.2% | 42.6% | 40.9% | 37.7% | −6.2% | 1.0% | −7.6% | 7.0% | 18.0% | 34.2% |  |  |  |  |  | effect on keratinocyte viability (in words) ([3]; assessed below 50 μM): did not modify keratinocyte viability
4 | CCCCCCCCCCCCCCCC(=O)N[C@@H](Cc1c[nH]c2ccccc12)C(=O)N[C@@H](CCC(=O)O)C(=O)N[C@@H](CCC(N)=O)C(=O)N[C@@H](CCC(=O)O)C(=O)N[C@@H](Cc1ccccc1)C(=O)N[C@@H](CC(C)C)C(=O)N[C@@H](CCCNC(=N)N)C(=O)N[C@@H](CCCNC(=N)N)C(N)=O [SEQ ID NO: 5 palmitoyl, WEQEFLRR] (Palmitoyl-WEQEFLRR-NH2) | 25.1% | 24.7% | 17.9% |  |  | −0.2% | 10.3% | 7.6% | 18.0% |  |  | −2.9% | −5.5% | −6.3% | −24.3% |  |  |  |  |  | % Ach release inhibition ([1]; TFA salt, 0.1 μM): 16.4%; % Ach release inhibition ([1]; TFA salt, 1 μM): 16.1%
5 | Ac-HYWRELQYR-NH2 [SEQ ID NO: 1 acetyl, HYWRELQYR] |  | 87.9% | 33.6% |  |  | 0.2% | 9.7% | 33% | 3.9% |  |  | −1.4% | 8.8% | 1.7% | 7.4% | 10.1% |  |  | 27.9% | 55.9% | % Ach release inhibition ([1]; TFA salt, 100 μM): 65.9%; % inhibition cell viability ([2]; 100 μM): 6.8%; % inhibition cell viability ([2]; 200 μM): 2.9%; effect on cell viability (in words) [2]: did not modify cell viability; % inhibition cell viability ([3]; 100 μM): 6.2%; % inhibition cell viability ([3]; 200 μM): 9.5%; effect on cell viability (in words) [3]: did not modify cell viability; % CGRP release inhibition ([4]; peptide 100 μM): 39.1%
6 | Ac-WEQEFLRR-NH2 [SEQ ID NO: 5 acetyl, WEQEFLRR] |  | 52.8% | 51.5% |  |  | 9.3% | 10.0% | 12.1% | 10.0% |  |  | −5.7% | 0.8% | 4.2% | 4.3% |  |  | around 40% |  |  | % Ach release inhibition ([1]; TFA salt, 0.1 μM): 19.0%; % Ach release inhibition ([1]; TFA salt, 1 μM): 22.0%; % Ach release inhibition ([1]; TFA salt, 100 μM): 81.6%; % inhibition cell viability ([2]; 100 μM): 15.0%; % inhibition cell viability ([2]; 200 μM): 14.7%; effect on cell viability (in words) [2]: did not modify cell viability; % inhibition cell viability ([3]; 100 μM): 10.4%; % inhibition cell viability ([3]; 200 μM): 23.7%; effect on cell viability (in words) [3]: did not modify cell viability
